Laboratory results published in US7538241B2, “Hsp90 family protein inhibitors” (Kyowa Hakko Kogyo Co., Ltd., priority 2003, dated 2009).

Tested on: human chronic myelocytic leukemia-derived K562 cells
Test: Cell growth inhibition test with K562 cells (WST-1)
Type: cell-based
Conditions: 72 hours, read-out: 50% growth inhibition concentration (GI50)
Procedure: In a 96-well plate (Nunc), human chronic myelocytic leukemia-derived K562 cells were sown in an amount of 1500 cells/well, and pre-incubated in 10% FCS-containing Rosewell Park Memorial Institute's Medium (RPMI) 1640 (Nissui) (incubation medium) in a 5% carbon dioxide incubator at 37° C. for 5 hours. Next, a DMSO solution of a test compound controlled at 10 mmol/L was stepwise diluted with the incubation medium, and added to each well in a total amount of 100 μL/well, and further incubated in the 5% carbon dioxide incubator at 37° C. for 72 hours. After the incubation, WST-1-labeled mixture (Rosh Diagnostic) diluted 2-fold with the incubation medium was added thereto in an amount of 20 μL/well, and incubated in the 5% carbon dioxide incubator at 37° C. for 2 hours. Using a microplate spectrophotometer (Biorad's Model 550), the absorbance at 450 nm and 655 nm of each well was measured. The cell growth inhibition activity of the test compound was indicated by the 50% growth inhibition concentration (GI50) thereof, like in Test Example 2.

Row | GI50 | Compound
1 | ≤ 50 µM | CCc1c(O)cc(O)c(-c2cccc(O)c2)c1CCOCC1CO1 (stereo not shown) [Compound 219, 6-Ethyl-4-(3-hydroxyphenyl)-5-[2-(oxiran-2-ylmethoxy)ethyl]benzene-1,3-diol]
2 | ≤ 50 µM | CCc1c(O)cc(O)c(-c2ccccc2)c1CCC(=O)NCCO [Compound 220, 3-(2-Ethyl-3,5-dihydroxy-6-phenylphenyl)-N-(2-hydroxyethyl)propanamide]
3 | ≤ 50 µM | CCc1c(O)cc(O)c(-c2ccccc2)c1CCC(=O)NCCNC(C)=O [Compound 221, N-[2-(acetylamino)ethyl]-3-(2-ethyl-3,5-dihydroxy-6-phenylphenyl)propanamide]
4 | ≤ 50 µM | CCc1c(O)cc(O)c(-c2ccccc2)c1CCc1ocnc1C(N)=O [Compound 222, 5-[2-(2-Ethyl-3,5-dihydroxy-6-phenylphenyl)ethyl]-1,3-oxazole-4-carboxamide]
5 | ≤ 50 µM | CCc1c(O)cc(O)c(-c2ccccc2)c1CCc1ocnc1C(=O)NCCO [Compound 223, 5-[2-(2-Ethyl-3,5-dihydroxy-6-phenylphenyl)ethyl]-N-(2-hydroxyethyl)-1,3-oxazole-4-carboxamide]
6 | ≤ 50 µM | CCc1c(O)cc(O)c(-c2ccccc2)c1CCc1ocnc1C(=O)N(CCO)CCO [Compound 224, 5-[2-(2-ethyl-3,5-dihydroxy-6-phenylphenyl)ethyl]-N,N-bis(2-hydroxyethyl)-1,3-oxazole-4-carboxamide]
7 | ≤ 50 µM | CCc1c(O)cc(O)c(-c2ccccc2)c1CCc1ocnc1C(=O)NC(CO)CO [Compound 225, 5-[2-(2-ethyl-3,5-dihydroxy-6-phenylphenyl)ethyl]-N-[2-hydroxy-1-(hydroxymethyl)ethyl]-1,3-oxazole-4-carboxamide]
8 | ≤ 50 µM | CCc1c(O)cc(O)c(-c2ccccc2)c1CCc1ocnc1C(=O)NCC(O)CO (stereo not shown) [Compound 226, N-(2,3-dihydroxypropyl)-5-[2-(2-ethyl-3,5-dihydroxy-6-phenylphenyl)ethyl]-1,3-oxazole-4-carboxamide]
9 | ≤ 50 µM | CCc1c(O)cc(O)c(-c2cccc(C)c2)c1CC1O[C@H](CO)[C@@H](CO)O1 [Compound 228, 5-{[(4R,5R)-4,5-bis(hydroxymethyl)-1,3-dioxolan-2-yl]methyl}-6-ethyl-4-(3-methylphenyl)benzene-1,3-diol]
10 | ≤ 50 µM | OC[C@H]1OC(Cc2cc(O)cc(O)c2-c2ccccc2)O[C@@H]1CO [Compound 230, 5-{[(4R,5R)-4,5-bis(hydroxymethyl)-1,3-dioxolan-2-yl]methyl}-4-phenylbenzene-1,3-diol]
11 | ≤ 50 µM | OC[C@H]1OC(Cc2c(Br)c(O)cc(O)c2-c2ccccc2)O[C@@H]1CO [Compound 232, 5-{[(4R,5R)-4,5-bis(hydroxymethyl)-1,3-dioxolan-2-yl]methyl}-6-bromo-4-phenylbenzene-1,3-diol]
12 | ≤ 50 µM | CCc1c(O)cc(O)c(-c2cccc(OC)c2)c1CC1O[C@@H](CO)[C@H](CO)O1 [Compound 233, 5-{[(4S,5S)-4,5-Bis(hydroxymethyl)-1,3-dioxolan-2-yl]methyl}-6-ethyl-4-(3-methoxyphenyl)benzene-1,3-diol]
13 | ≤ 50 µM | CC(=O)c1c(O)cc(O)c(-c2ccccc2)c1CC1O[C@H](CO)[C@@H](CO)O1 [Compound 234, 1-(6-{[(4R,5R)-4,5-bis(hydroxymethyl)-1,3-dioxolan-2-yl]methyl}-2,4-dihydroxy-5-phenylphenyl)ethanone]
14 | ≤ 50 µM | COC(=O)Cc1cc(O)cc(O)c1-c1ccc(CCC(C)=O)o1 [Compound 261, Methyl 3,5-dihydroxy-2-[5-(3-oxobutyl)furan-2-yl]phenylacetate]
15 | ≤ 50 µM | OC[C@H]1OC(Cc2c(Cl)c(O)cc(O)c2-c2ccccc2)O[C@@H]1CO [Compound 280, 5-{[(4R,5R)-4,5-bis(hydroxymethyl)-1,3-dioxolan-2-yl]methyl}-6-chloro-4-phenylbenzene-1,3-diol]
16 | ≤ 50 µM | CCc1c(O)cc(O)c(-c2cccc(O)c2)c1CC1O[C@@H](CO)[C@H](CO)O1 [Compound 281, 5-{[(4S,5S)-4,5-bis(hydroxymethyl)-1,3-dioxolan-2-yl]methyl}-6-ethyl-4-(3-hydroxyphenyl)benzene-1,3-diol]
17 | ≤ 50 µM | CCc1c(O)cc(O)c(-c2cccc(F)c2)c1CC1O[C@@H](CO)[C@H](CO)O1 [Compound 282, 5-{[(4S,5S)-4,5-bis(hydroxymethyl)-1,3-dioxolan-2-yl]methyl}-6-ethyl-4-(3-fluorophenyl)benzene-1,3-diol]

Row | GI50 | Compound
18 | ≤ 50 µM | CCc1c(O)cc(O)c(-c2cc(C)cc(C)c2)c1CC1O[C@@H](CO)[C@H](CO)O1 [Compound 283, 5-{[(4S,5S)-4,5-bis(hydroxymethyl)-1,3-dioxolan-2-yl]methyl}-4-(3,5-dimethylphenyl)-6-ethylbenzene-1,3-diol]
19 | ≤ 50 µM | CCc1c(O)cc(O)c(-c2cccc(NC(C)=O)c2)c1CC1O[C@@H](CO)[C@H](CO)O1 [Compound 284, 4-[3-(acetylamino)phenyl]-5-{[(4S,5S)-4,5-bis(hydroxymethyl)-1,3-dioxolan-2-yl]methyl}-6-ethylbenzene-1,3-diol]
20 | ≤ 50 µM | OC[C@@H]1OC(Cc2c(Cl)c(O)cc(O)c2-c2ccccc2)O[C@H]1CO [Compound 285, 5-{[(4S,5S)-4,5-bis(hydroxymethyl)-1,3-dioxolan-2-yl]methyl}-6-chloro-4-phenylbenzene-1,3-diol]
21 | ≤ 50 µM | CCc1c(O)cc(O)c(-c2cccc(OC)c2)c1CC1O[C@H](CO)[C@@H](CO)O1 [Compound 286, 5-{[(4R,5R)-4,5-bis(hydroxymethyl)-1,3-dioxolan-2-yl]methyl}-6-ethyl-4-(3-methoxyphenyl)benzene-1,3-diol]
22 | ≤ 50 µM | CC(=O)c1c(O)cc(O)c(-c2ccccc2)c1CC1O[C@@H](CO)[C@H](CO)O1 [Compound 287, 6-Acetyl-5-{[(4S,5S)-4,5-bis(hydroxymethyl)-1,3-dioxolan-2-yl]methyl}-4-phenylbenzene-1,3-diol]
23 | ≤ 50 µM | CCc1c(O)cc(O)c(-c2cccc(C(N)=O)c2)c1CC1O[C@@H](CO)[C@H](CO)O1 [Compound 288, 5-{[(4S,5S)-4,5-Bis(hydroxymethyl)-1,3-dioxolan-2-yl]methyl}-6-ethyl-4-(3-carbamoylphenyl)benzene-1,3-diol]
24 | ≤ 50 µM | CCc1c(O)cc(O)c(-c2cccc(C(=O)NC)c2)c1CC1O[C@@H](CO)[C@H](CO)O1 [Compound 289, 5-{[(4S,5S)-4,5-Bis(hydroxymethyl)-1,3-dioxolan-2-yl]methyl}-6-ethyl-4-[3-(methylcarbamoyl)phenyl]benzene-1,3-diol]
25 | ≤ 50 µM | CCc1c(O)cc(O)c(-c2cccc(C(=O)N(C)C)c2)c1CC1O[C@@H](CO)[C@H](CO)O1 [Compound 290, 5-{[(4S,5S)-4,5-Bis(hydroxymethyl)-1,3-dioxolan-2-yl]methyl}-4-[3-(dimethylcarbamoyl)phenyl]-6-ethylbenzene-1,3-diol]
26 | ≤ 50 µM | CCc1c(O)cc(O)c(-c2ccc(F)c(C)c2)c1CC1O[C@H](CO)[C@@H](CO)O1 [Compound 291, 5-{[(4R,5R)-4,5-bis(hydroxymethyl)-1,3-dioxolan-2-yl]methyl}-6-ethyl-4-(4-fluoro-3-methylphenyl)benzene-1,3-diol]
27 | ≤ 50 µM | CCc1c(O)cc(O)c(-c2cccc(C(=O)N(C)C)c2)c1CC1O[C@H](CO)[C@@H](CO)O1 [Compound 292, 5-{[(4R,5R)-4,5-bis(hydroxymethyl)-1,3-dioxolan-2-yl]methyl}-4-[3-(dimethylcarbamoyl)phenyl]-6-ethylbenzene-1,3-diol]
28 | ≤ 50 µM | CCc1c(O)cc(O)c(-c2ccc(F)c(Cl)c2)c1CC1O[C@H](CO)[C@@H](CO)O1 [Compound 293, 5-{[(4R,5R)-4,5-bis(hydroxymethyl)-1,3-dioxolan-2-yl]methyl}-4-(3-chloro-4-fluorophenyl)-6-ethylbenzene-1,3-diol]
29 | ≤ 50 µM | CCc1c(O)cc(O)c(-c2cccc(C(=O)NC)c2)c1CC1O[C@H](CO)[C@@H](CO)O1 [Compound 294, 5-{[(4R,5R)-4,5-Bis(hydroxymethyl)-1,3-dioxolan-2-yl]methyl}-6-ethyl-4-[3-(methylcarbamoyl)phenyl]benzene-1,3-diol]
30 | ≤ 50 µM | CCc1c(O)cc(O)c(-c2cccc(C(N)=O)c2)c1CC1O[C@H](CO)[C@@H](CO)O1 [Compound 295, 5-{[(4R,5R)-4,5-bis(hydroxymethyl)-1,3-dioxolan-2-yl]methyl}-4-(3-carbamoylphenyl)-6-ethylbenzene-1,3-diol]
31 | ≤ 50 µM | CCc1c(O)cc(O)c(-c2cccc(F)c2)c1CC1O[C@H](CO)[C@@H](CO)O1 [Compound 296, 5-{[(4R,5R)-4,5-bis(hydroxymethyl)-1,3-dioxolan-2-yl]methyl}-6-ethyl-4-(3-fluorophenyl)benzene-1,3-diol]
32 | ≤ 50 µM | CCc1c(O)cc(O)c(-c2cccc(O)c2)c1CC1O[C@H](CO)[C@@H](CO)O1 [Compound 298, 5-{[(4R,5R)-4,5-Bis(hydroxymethyl)-1,3-dioxolan-2-yl]methyl}-6-ethyl-4-(3-hydroxyphenyl)benzene-1,3-diol]
33 | ≤ 50 µM | CCc1c(O)cc(O)c(-c2ccc(F)c(F)c2)c1CC1O[C@@H](CO)[C@H](CO)O1 [Compound 299, 5-{[(4S,5S)-4,5-bis(hydroxymethyl)-1,3-dioxolan-2-yl]methyl}-4-(3,4-difluorophenyl)-6-ethylbenzene-1,3-diol]
34 | ≤ 50 µM | CCc1c(O)cc(O)c(-c2ccc(F)c(Cl)c2)c1CC1O[C@@H](CO)[C@H](CO)O1 [Compound 301, 5-{[(4S,5S)-4,5-Bis(hydroxymethyl)-1,3-dioxolan-2-yl]methyl}-4-(3-chloro-4-fluorophenyl)-6-ethylbenzene-1,3-diol]
